Assay results: article PMC7286914 (2020)

Key:
Test in all cases: Cy3/quencher fluorescence titration, Langmuir fit
[1] = test system: TAT60 (DNA, aptamer) CACCTGGGGGAGTATTGCGGAGGAAGGTTTTGAGGGAAAGAATCATTTCTTTCCCTATGTTTCCCTTTCTTTTTAACCAGGTG; conditions: 6 mM MgCl2; Na+ (concentration not stated); 10 mM Tris, 10 mM Bis-Tris, 10 mM sodium acetate, pH 7, room temperature; apparent, intramolecular displacement strand competes
[2] = test system: A-C Mismatch (DNA, aptamer) CACCTGGGGGAGTATTGCGGAGGAAGGTTTTTTTTTTTTTACCCCCAAGTG; conditions: 6 mM MgCl2; Na+ (concentration not stated); 10 mM Tris, 10 mM Bis-Tris, 10 mM sodium acetate, pH 8, room temperature; apparent, intramolecular displacement strand competes
[3] = test system: A-G Mismatch (DNA, aptamer) CACCTGGGGGAGTATTGCGGAGGAAGGTTTTTTTTTTTTTTTCCCAAGGTG; conditions: 6 mM MgCl2; Na+ (concentration not stated); 10 mM Tris, 10 mM Bis-Tris, 10 mM sodium acetate, pH 7.5, room temperature; apparent, intramolecular displacement strand competes
[4] = test system: Combined TAT80/A-C Mismatch (DNA, aptamer) CACCTGGGGGAGTATTGCGGAGGAAGGTTTTGAAGAAAAAGATTGCTCTTTTTCTTATTGTTTCTTTTTCTATTTACCCCCAAGTG; conditions: 6 mM MgCl2; Na+ (concentration not stated); 10 mM Tris, 10 mM Bis-Tris, 10 mM sodium acetate, pH 6.5, room temperature; apparent, intramolecular displacement strand competes

KDeff [1]: 3.9 (95% CI 3.2–4.8) mM
KDeff [2]: 0.30 (95% CI 0.25–0.36) mM
KDeff [3]: 0.32 (95% CI 0.27–0.37) mM
KDeff [4]: 32 (95% CI 27–39) μM
SMILES: Nc1ncnc2c1ncn2[C@@H]1O[C@H](COP(=O)(O)OP(=O)(O)OP(=O)(O)O)[C@@H](O)[C@H]1O
